Like-named read-outs stand apart in the source and are kept apart here.
Experiments:
GTP in whole blood = GTP in whole blood (Example 8); assay type: cell-based, human; conditions: 37° C., 8 hours, non-treated = 100%
Procedure: (§1) A ¾ hydrate of Compound A was used as a test compound.
(§2) 450 μL of the blood collected from healthy individuals by heparinized blood collection was added to each tube, and 50 μL of a PBS solution of the test compound (0 μg/mL, 1 μg/mL, 10 μg/mL, or 100 μg/mL in terms of Compound A) for each concentration was added to each tube. The reaction mixture was stirred in an incubator at 37° C. for 8 hours.
(§3) 400 μL of methanol was added to 100 μL of the blood sample obtained in (1). After stirring, 400 μL of chloroform was added, followed by further stirring. 120 μL of ultrapure water was added thereto, followed by stirring and then centrifugation at 4° C. and 10000×g for 15 min. 400 μL of the aqueous phase was recovered and added to an ultrafiltration tube, followed by centrifugation at 12° C. and 9200×g for 2 hours. The filtrate was dried under reduced pressure at 40° C. for 2 hours by using a centrifugal evaporator. After drying, the resulting product was stored in a freezer at −80° C.
(§4) The samples obtained in (2) were returned to room temperature and 40 μL of ultrapure water was added to each sample. The mixture was stirred and centrifuged at 4° C. and 21500×g for 5 min. 35 μL of the supernatant was transferred to a vial. After storage at 4° C., XMP, GMP and GTP in the samples were determined in the LC-MS/MS determination instrument and LC conditions described in Example 3 (3), and MS/MS conditions shown in Table 15.
(§5) Amounts of XMP, GMP and GTP (%) were calculated assuming that the XMP, GMP and GTP values of a non-Compound A treated group (peak area value) are defined as 100%.

XMP in whole blood [1] = assay: XMP in whole blood (Example 8); assay type: cell-based, human; conditions: 37° C., 8 hours, non-treated = 100%
Procedure: as §1, §2, §3, §4, §5

XMP in whole blood [2] = assay: XMP in whole blood (Example 5); assay type: cell-based, human; conditions: 37° C., 8 hours, non-treated = 100%
Procedure: (§6) A ¾ hydrate of Compound A was used s a test compound.
as §2, with “from two” for “from”, “collection (Analyte A and Analyte B)” for “collection”, “μg/mL,” for “μg/mL, 1 μg/mL,”, “μg/mL, 30 μg/mL, 100 μg/mL, 300 μg/mL,” for “μg/mL,”, “1000” for “100”
as §3
(§7) The samples obtained in (2-1) and (2-2) were returned to room temperature and 40 μL of ultrapure water was added to each sample. The mixture was stirred and centrifuged at 4° C. and 21500×g for 5 min. 35 μL of the supernatant was transferred to a vial. After storage at 4° C., XMP in samples was determined in the LC-MS/MS determination instrument, LC conditions and MS/MS conditions described in Example 3 (3).
(§8) Amounts of XMP (%) were calculated assuming that amounts of XMP in a non-Compound A treated group are defined as 100%.

[3] = tested on: XMP in blood cells after hemolysis; assay: XMP in blood cells after hemolysis (Example 5); assay type: cell-based; conditions: Homo sapiens, 37° C., 8 hours, non-treated = 100%; for XMP amount (% of non-treated) at 1 µg/mL: Compound A 1 μg/mL; for XMP amount (% of non-treated) at 3 µg/mL: Compound A 3 μg/mL; for XMP amount (% of non-treated) at 10 µg/mL: Compound A 10 μg/mL; for XMP amount (% of non-treated) at 30 µg/mL: Compound A 30 μg/mL; for XMP amount (% of non-treated) at 100 µg/mL: Compound A 100 μg/mL
Procedure: as §6
as §2, with “from two” for “from”, “collection (Analyte A and Analyte B)” for “collection”, “μg/mL,” for “μg/mL, 1 μg/mL,”, “μg/mL, 30 μg/mL, 100 μg/mL, 300 μg/mL,” for “μg/mL,”, “1000” for “100”
BD Pharm Lyse (555899, manufactured by Becton, Dickinson and Company, Inc.) was added to the blood sample obtained in (1) (2 mL of BD Pharm Lyse was added relative to 0.2 mL of blood). After stirring with a vortex mixer, the reaction solution was protected from light and allowed to stand at room temperature for 15 min. After centrifugation at 20° C. and 1000×g for 5 min, the supernatant was removed and suspended in 10 mL of PBS. After centrifugation at 4° C. and 1000×g for 5 min, the supernatant was removed, and 1000 μL of methanol was added to each tube, followed by stirring. Thereafter, 500 μL of ultrapure water was added thereto, followed by further stirring. 600 μL of the reaction solution was divided into each of two tubes, and 400 μL of chloroform was added to each tube. The reaction solution was stirred and then centrifuged at 4° C. and 10000×g for 15 min. 400 μL of the aqueous phase was recovered and added to an ultrafiltration tube (UltrafreeMC-PLHCC 250/pk for Metabolome Analysis (manufactured by Human Metabolome Technologies)), followed by centrifugation at 12° C. and 9200×g for 2 hours. The filtrates were combined and then dried under reduced pressure at 40° C. for 2 hours by using a centrifugal evaporator. After drying, the resulting product was stored in a freezer at −80° C.
as §7, §8

[4] = read-out: Amount of XMP (%) Analyte A Hemolysis
[5] = read-out: Amount of XMP (%) Analyte B Hemolysis

## NC(=O)c1nc[nH]c1O [Compound A, 5-Hydroxy-1H-imidazole-4-carboxamide]
GTP in whole blood; Compound A 1 μg/mL
  Amount of each compound in whole blood (%) GTP: 89%
GTP in whole blood; Compound A 10 μg/mL
  Amount of each compound in whole blood (%) GTP: 86%
GTP in whole blood; Compound A 100 μg/mL
  Amount of each compound in whole blood (%) GTP: 79%
XMP in whole blood [1]; Compound A 1 μg/mL
  Amount of each compound in whole blood (%) XMP: 55%
XMP in whole blood [1]; Compound A 10 μg/mL
  Amount of each compound in whole blood (%) XMP: 30%
XMP in whole blood [1]; Compound A 100 μg/mL
  Amount of each compound in whole blood (%) XMP: 13%
XMP in whole blood [2]; Compound A 1 μg/mL
  Amount of XMP (%) Analyte A Whole blood: 57%
  Amount of XMP (%) Analyte B Whole blood: 44%
XMP in whole blood [2]; Compound A 3 μg/mL
  Amount of XMP (%) Analyte A Whole blood: 53%
  Amount of XMP (%) Analyte B Whole blood: 27%
XMP in whole blood [2]; Compound A 10 μg/mL
  Amount of XMP (%) Analyte A Whole blood: 47%
  Amount of XMP (%) Analyte B Whole blood: 15%
XMP in whole blood [2]; Compound A 30 μg/mL
  Amount of XMP (%) Analyte A Whole blood: 26%
  Amount of XMP (%) Analyte B Whole blood: 11%
XMP in whole blood [2]; Compound A 100 μg/mL
  Amount of XMP (%) Analyte A Whole blood: 15%
  Amount of XMP (%) Analyte B Whole blood: 9%
[3]; [4]
  XMP amount (% of non-treated) at 1 µg/mL: 60%
  XMP amount (% of non-treated) at 3 µg/mL: 45%
  XMP amount (% of non-treated) at 10 µg/mL: 37%
  XMP amount (% of non-treated) at 30 µg/mL: 27%
  XMP amount (% of non-treated) at 100 µg/mL: 16%
[3]; [5]
  XMP amount (% of non-treated) at 1 µg/mL: 51%
  XMP amount (% of non-treated) at 3 µg/mL: 37%
  XMP amount (% of non-treated) at 10 µg/mL: 25%
  XMP amount (% of non-treated) at 30 µg/mL: 18%
  XMP amount (% of non-treated) at 100 µg/mL: 10%

Source: patent publication US20160320368A1, “METHOD AND APPARATUS FOR PREDICTING EFFECTIVE DOSE OR SENSITIVITY OF 5-HYDROXY-1H-IMIDAZOLE-4-CARBOXAMIDE, METHOD FOR DETERMINING AMOUNT OF XANTHOSINE MONOPHOSPHATE, AND TREATMENT AGENT AND METHOD FOR TREATING MYELODYSPLASTIC SYNDROME” (FUJIFILM Corporation, priority 2014, published 2016)
